# According to patent publication US20110045021A1, “SUGAR IMMUNOGENS” (United Therapeutics Corporation, priority 2007, published 2011):
# Assay: Binding of human sera to a glycan microarray, measured by fluorescent anti-human antibodies
# Conditions: human sera (n=10), FIG. 1
# Description: FIG. 1 provides an analysis of binding of human sera (n=10) to a glycan microarray measured by fluorescent anti-human antibodies.
# To identify carbohydrates that are naturally or inherently antigenic to the human immune system, one can screen human serum antibodies against immobilized glycans (see FIG. 1). This may reveal carbohydrates, and/or carbohydrate arrangements which are recognised as “non-self”. […] By incorporating rhamnose, or a similar antigenic mimics into the natural oligomannose structure of gp120, the inherent tolerance to the (mannose) sugars of HIV may be overcome.
row,Molecule,antigenicity (human serum antibody reactivity against immobilized glycans)
1,OC[C@H]1O[C@H](O)[C@@H](O)[C@@H](O)[C@@H]1O [alpha-D-Mannose],is not
2,"C[C@H]1O[C@H](O)[C@@H](O)[C@@H](O)[C@@H]1O [alpha-D-rhamnose, 6-deoxy-alpha-D-mannose]",antigenic sugar
3,Man(α1-2)Man(α1-2)Man(α1-3)Man [D1],naturally antigenic
4,[Man(α1-2)Man(α1-6)][Man(α1-2)Man(α1-3)]Man [D2D3],naturally antigenic
